The values below come from US7307083B2, “Tetrahydro-acridine and dithiolane derivatives” (priority 2005, dated 2007).

Each structure is given as a SMILES string. Read-outs that look alike come from different tables or passages of the source.

Test [1] concerns the target butyrylcholinesterase (BChE) from human serum (Homo sapiens, UniProt P06276). As to the kind of experiment: biochemical. Format: biochemical.
Test [2] has as its system anti-NGF mice (AD11). As to the kind of experiment: Cholinergic deficit of anti-NGF mice: ChAT immunohistochemistry, cholinergic neurones in the basal forebrain. Conditions: i.p., 15 days, doses of Table 6.
Method: Immunohistochemistry was carried out to show the number of cholinergic neurones in the basal forebrain. For this purpose, sections were incubated with the monoclonal antibody anticholine acetyltransferase (1:500, Chemicon International Inc., Temecula, Calif.).
Test [3] concerns the target AChE-induced Aβ40 aggregation (Homo sapiens, UniProt P22303). Put plainly: biochemical. Conditions: read-out: % of inhibition ± SEM of AChE-induced Aβ40 aggregation.
In test [4] the target is human recombinant acetylcholinesterase (AChE or HuAChE) (Homo sapiens, UniProt P22303). Put plainly: biochemical. The class given is biochemical.
Sequence of human recombinant acetylcholinesterase (AChE or HuAChE) (P22303 32-614): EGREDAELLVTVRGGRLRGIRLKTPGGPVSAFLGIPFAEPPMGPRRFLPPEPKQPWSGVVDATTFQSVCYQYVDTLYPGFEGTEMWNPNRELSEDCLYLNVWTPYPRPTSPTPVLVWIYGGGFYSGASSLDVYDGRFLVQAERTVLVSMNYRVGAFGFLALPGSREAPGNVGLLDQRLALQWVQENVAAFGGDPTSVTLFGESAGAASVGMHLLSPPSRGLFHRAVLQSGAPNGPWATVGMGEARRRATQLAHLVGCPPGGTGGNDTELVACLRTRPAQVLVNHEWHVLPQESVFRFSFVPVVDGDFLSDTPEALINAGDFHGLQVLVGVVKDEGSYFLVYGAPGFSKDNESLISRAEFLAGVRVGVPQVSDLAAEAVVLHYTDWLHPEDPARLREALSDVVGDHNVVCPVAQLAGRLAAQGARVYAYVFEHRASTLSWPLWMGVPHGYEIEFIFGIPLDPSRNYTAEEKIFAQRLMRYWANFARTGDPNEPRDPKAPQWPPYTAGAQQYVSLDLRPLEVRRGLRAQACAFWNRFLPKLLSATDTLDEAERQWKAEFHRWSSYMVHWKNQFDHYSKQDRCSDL
Setting [5] is: BChE from human serum, mean of two independent measurements, each in duplicate, read-out: IC50 BChE.
Setting [6] is: human recombinant AChE, mean of two independent measurements, each in duplicate, read-out: IC50 AChE.

Sequence of butyrylcholinesterase (BChE) from human serum (P06276 29-602): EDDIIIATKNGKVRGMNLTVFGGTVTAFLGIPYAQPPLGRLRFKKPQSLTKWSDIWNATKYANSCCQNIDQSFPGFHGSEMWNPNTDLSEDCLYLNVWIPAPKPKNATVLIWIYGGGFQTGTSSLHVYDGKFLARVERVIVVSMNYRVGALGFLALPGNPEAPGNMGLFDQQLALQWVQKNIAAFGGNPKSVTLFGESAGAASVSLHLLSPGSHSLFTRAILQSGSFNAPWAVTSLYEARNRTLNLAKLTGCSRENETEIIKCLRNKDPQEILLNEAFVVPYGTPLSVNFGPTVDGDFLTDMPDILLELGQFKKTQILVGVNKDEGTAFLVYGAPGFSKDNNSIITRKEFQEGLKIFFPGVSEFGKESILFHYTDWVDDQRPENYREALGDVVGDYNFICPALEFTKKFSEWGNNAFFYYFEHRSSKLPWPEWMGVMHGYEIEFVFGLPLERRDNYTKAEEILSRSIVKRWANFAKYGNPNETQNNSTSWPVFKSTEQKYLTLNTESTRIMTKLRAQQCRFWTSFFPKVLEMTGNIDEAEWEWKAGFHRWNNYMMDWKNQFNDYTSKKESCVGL
Sequence of AChE-induced Aβ40 aggregation (P22303 32-614): as the sequence (P22303 32-614) above

One may read the IC50 as the point on the concentration scale where inhibition reaches its midpoint. Broadly, the inhibition is how much of the control response was suppressed. With `COc1cccc(C(C)N(C)CCCNC(=O)CCCCC2CCSS2)c1` (centres unmarked) [Compound 20, 5-[1,2]dithiolan-3-yl-pentanoic acid (3-{[1-(3-methoxy-phenyl)-ethyl]-methyl-amino}-propyl)-amide], the figures for the IC50 in test [1] (setting [5]) and in test [4] (setting [6]) were 398 nM and 74100 nM, respectively. In addition, in test [2], the “recovery of the cholinergic deficit (number of cholinergic neurones in the basal forebrain)” value (shortened to “recovery of the cholinergic deficit”) was “did not allow the complete recovery of the cholinergic deficit”. For the same compound, the inhibition at 100 µM in test [3] was found to be 15.6 ± 7.8%.

For the compound `Nc1c2c(nc3cc(Cl)ccc13)CC(CNC(=O)CCCCC1CCSS1)CC2` (centres unmarked) [Compound 8, 5-[1,2]dithiolan-3-yl-pentanoic acid (9-Amino-6-chloro-1,2,3,4-tetrahydro-acridin-3-ylmethyl)-amide], the IC50 in test [4] (setting [6]) came out at 232 nM.

On to `O=C(CCCCC1CCSS1)NCCCCNc1c2c(nc3ccccc13)CCCC2` (centres unmarked) [Compound 3, 5-[1,2]dithiolan-3-yl-pentanoic acid [4-(1,2,3,4-tetrahydro-acridin-9-ylamino)-butyl]amide], for which the IC50 in test [1] (read-out: IC50 BChE) was 5.04 nM; in test [4] (setting [6]), 35.2 nM.

Turning to `COc1cc2nc(Cl)nc(NCCCNC(=O)CCCCC3CCSS3)c2cc1OC` (centres unmarked) [Compound 23, 5-[1,2]dithiolan-3-yl-pentanoic acid [3-(2-chloro-6,7-dimethoxy-chinazoline-4-ylamino)-propyl]-amide], the inhibition at 100 µM in test [3] amounted to 32.1 ± 3.9%. Besides, the 50% inhibitory concentration (IC50) in test [4] is 192000 nM.

As for `CC(c1cccc(OCCCNC(=O)CCCCC2CCSS2)c1)N(C)C` (centres unmarked) [Compound 19, 5-[1,2]dithiolan-3-yl-pentanoic acid {3-[3-(1-dimethylamino-ethyl)-phenoxy]-propyl}-amide], the IC50 in test [1] is 82400 nM; in test [4] (setting [6]) it was 25200 nM. Also, in test [2], the “recovery of the cholinergic deficit” value was “did not allow the complete recovery of the cholinergic deficit”. In test [3], the inhibition at 100 µM is 9 ± 6.6%.

As to `O=C(CCCCC1CCSS1)NCCCNc1c2c(nc3ccccc13)CCCC2` (centres unmarked) [Compound 2, 5-[1,2]dithiolan-3-yl-pentanoic acid [3-(1,2,3,4-tetrahydro-acridin-9-ylamino)propyl]amide], the figures for the IC50 in test [1] (setting [5]) and in test [4] (setting [6]) were 12 nM and 6.96 nM, respectively.

As to `O=C(CCCCc1cccs1)NCCCNc1c2c(nc3cc(Cl)ccc13)CCCC2` [Compound 21, 5-thiofen-2-yl-pentanoic acid [3-(6-chloro-1,2,3,4-tetrahydro-acridin-9-ylamino)-propyl]-amide], the concentration for half-maximal inhibition (IC50) was 30.6 nM in test [1] (setting [5]) and 2.66 nM in test [4]. The inhibition at 100 µM in test [3] came to 24.1 ± 5.7%.

On to `CCN(CCCCCCNC(=O)CCCCC1CCSS1)Cc1ccccc1OC` (centres unmarked) [Compound 18, 5-[1,2]dithiolan-3-yl-pentanoic acid {6-[Ethyl-(2-methoxy-benzyl)-amino]-hexyl}-amide], for which the IC50 was determined as 2490 nM in test [1] (setting [5]) and 256 nM in test [4] (setting [6]). The “recovery of the cholinergic deficit” value in test [2] is “significant recovery”. For the same compound, the inhibition at 100 µM in test [3] was 16.8 ± 2.2%.

With `O=C(CCCCC1CCSS1)NCCCCCNc1c2c(nc3ccccc13)CCCC2` (centres unmarked) [Compound 4, 5-[1,2]dithiolan-3-yl-pentanoic acid [5-(1,2,3,4-tetrahydro-acridin-9-ylamino)-pentyl]-amide], the IC50 in test [1] (read-out: IC50 BChE) was 1.48 nM; in test [4] (setting [6]), 38.4 nM.

As for `O=C(CCCCC1CCSS1)NCCNc1c2c(nc3ccccc13)CCCC2` (centres unmarked) [Compound 1, 5-[1,2]dithiolan-3-yl-pentanoic acid [2-(1,2,3,4-tetrahydro-acridin-9-ylamino)-ethyl]amide], the 50% inhibitory concentration (IC50) in test [1] (setting [5]) worked out at 47.5 nM; in test [4] (setting [6]) it was 97 nM.

As for `O=C(CCCCC1CCSS1)NCCCCCCNc1c2c(nc3ccccc13)CCCC2` (centres unmarked) [Compound 5, 5-[1,2]dithiolan-3-yl-pentanoic acid [6-(1,2,3,4-tetrahydro-acridin-9-ylamino)-hexyl]-amide], the half-maximal inhibitory concentration (IC50) in test [1] (setting [5]) stood at 3.24 nM; in test [4] (setting [6]), 30.1 nM.

In the case of `O=C(CCCCC1CCSS1)NCCCCCCCNc1c2c(nc3ccccc13)CCCC2` (centres unmarked) [Compound 6, 5-[1,2]dithiolan-3-yl-pentanoic acid [7-(1,2,3,4-tetrahydro-acridin-9-ylamino)-heptyll]-amide], in test [1] (setting [5]), the IC50 stood at 8.58 nM.
